{"source": "paper PMC9257752", "about": "“Intestinal Absorption of FITC-Dextrans and Macromolecular Model Drugs in the Rat Intestinal Instillation Model” (Molecular Pharmaceutics, 2022)", "key": {"[1]": {"experiment": "Rat intestinal instillation model (intraduodenal administration, plasma pharmacokinetics, deconvolution)", "details": "for Proportion of total absorption (120 min) occurring in interval 0–20 min / Proportion of total absorption (120 min) occurring in interval 20–40 min / Proportion of total absorption (120 min) occurring in interval 40–60 min / Proportion of total absorption (120 min) occurring in interval 60–80 min / Proportion of total absorption (120 min) occurring in interval 80–100 min / Proportion of total absorption (120 min) occurring in interval 100–120 min: average ± SD; for Cmax / Tmax: male, Wistar Han, rat, plasma; for Cmax: pH 6.5, Cmax, MEDI7219 1.0 mg, PEP12210 5.0 mg, mean ± SD (CV%); for Tmax: pH 6.5, Tmax", "experimental": "Blank FaSSIF was prepared by dissolving 2.22 g of maleic acid, 1.39 g of sodium hydroxide, and 4.01 g of sodium chloride in Milli-Q water and adjusting the pH to 6.5 and volume to 1000 mL. C10 solutions were prepared at 50 or 300 mM C10 in blank FaSSIF and pH-adjusted to 6.5 by the addition of 2 M HCl. Blank FaSSIF solutions containing 0–300 mM C10 were stored at room temperature (RT) and used within 30 days. The model compounds were dissolved in blank FaSSIF with or without C10 the day before the absorption study and stored at +4 °C overnight. […] All IV formulations were sterile filtered into autoclaved injection vials and stored at +4 °C.\nUpon arrival at the animal facility, the rats underwent an acclimatization period of 5 days with food and water ad libitum.\nBriefly, anesthesia was induced with isoflurane after which the animal was moved to a preheated preparatory table. Fur was shaved from the throat to the lower abdomen and the shaved area was disinfected with a medicinal sponge containing chlorhexidine. The rat was draped in plastic foil and transferred to a preheated operating table where anesthesia was continued throughout the entire study using 3% isoflurane carried in an air/oxygen mixture. A polyurethane catheter was placed in the left carotid artery to allow for blood sampling, as well as blood pressure and heart rate monitoring. A midline incision was made in the abdomen, the duodenum was located and a catheter was placed in the common bile duct to avoid bile secretion into the duodenum. […] The stomach was punctured approximately 1 cm proximal to the pyloric sphincter with a 20G needle. A soft polyurethane catheter with a rounded tip was inserted into the small intestine via the gastric incision so that the tip of the catheter was positioned approximately 4 cm distal to the pylorus. The intestinal catheter was secured to the stomach with a suture and a ligature was placed at the pylorus to prevent backflow of formulation into the stomach and transit of gastric content into the duodenum. A thermometer was placed in the abdominal cavity and the abdomen was closed with stitches. A heating lamp coupled to the thermometer via a thermostat maintained the animal at 37 °C. The surgery was followed by a 30 min recovery period to allow the animal to regain normal temperature and blood pressure.\nThe liquid formulations were equilibrated to room temperature under magnetic stirring for 2 h prior to administration. Intestinal bolus administrations were performed over approximately 5 s via the intestinal catheter. […] The C10 doses were 7.8 mg for administrations with 50 mM C10 and 47 mg for 300 mM C10. Five to six replicates were performed for each administration group. […] Blood plasma was separated by immediately centrifuging the blood samples at +4 °C and 10 000g for 4 min. Plasma samples were transferred to new tubes and stored at −80 °C until analysis.\nThe animals receiving IV administration were handled and prepared in the same way as the animals receiving intestinal administration up until the placement of the carotid catheter. As no abdominal surgery was performed, a thermometer was introduced rectally."}, "[2]": {"details": "dogs; cited from earlier work", "excerpt": "MEDI7219 is a glucagon-like peptide 1 (GLP-1) receptor agonist drug candidate developed by AstraZeneca.[10] The peptide was designed for oral delivery and has natural amino acid and α-methyl amino acid substitutions to protect against peptidasesin the gastrointestinal tract. The peptide backbone has two lipid side chains that can bind to plasma proteins, thereby prolonging the circulation half-life of the peptide. […] The calculated pI is 3.8, giving the peptide a charge of −6.2 at pH 7.4. The molecular weight of MEDI7219 is 4353, ..."}, "pancreatin": {"system": "pancreatin", "design": "method as in PMID 34795324", "details": "simulated intestinal fluid containing pancreatin, over a 60 min period; cited from earlier work"}, "[3]": {"details": "0 mM C10, numerical deconvolution, n = 5–6 (PEP12210 n = 2)"}, "[4]": {"details": "50 mM C10, numerical deconvolution, n = 5–6"}, "[5]": {"details": "300 mM C10, numerical deconvolution, n = 5–6"}}, "note": "Numbered stars: 1 amine (or outer) side, 2 acyl side, 3 side chain; on linkers, the order of the positions; unused ones are H or OH. Square brackets hold non-standard residues; d marks the D form. Side chains are listed from the residue outwards. Peptide text beside a SMILES is read from it. * marks the point of attachment. γGlu = O=C(O)[C@H](CCC(=O)[*:2])N[*:1]; αMeF = C[C@](N)(Cc1ccccc1)C(=O)O; αMeK = C[C@](N)(CCCCN)C(=O)O; Lauroyl = CCCCCCCCCCCC(=O)*; αMeS = C[C@](N)(CO)C(=O)O; AEEA = NCCOCCOCC(=O)O; Aib = CC(C)(N)C(=O)O", "data": [{"smiles": "CCCCCCCCCCCC(=O)N[C@@H](CCC(=O)NCCOCCOCC(=O)NCCOCCOCC(=O)NCCCC[C@H](NC(=O)[C@H](C)NC(=O)[C@@H](NC(=O)[C@](C)(Cc1ccccc1)NC(=O)[C@H](CCC(=O)O)NC(=O)[C@](C)(CCCCN)NC(=O)[C@H](C)NC(=O)[C@H](C)NC(=O)[C@H](CCC(=O)O)NC(=O)CNC(=O)[C@H](CCC(=O)O)NC(=O)[C@H](CC(C)C)NC(=O)[C@H](CCCCNC(=O)COCCOCCNC(=O)COCCOCCNC(=O)CC[C@H](NC(=O)CCCCCCCCCCC)C(=O)O)NC(=O)[C@H](CO)NC(=O)[C@](C)(CO)NC(=O)[C@@H](NC(=O)[C@H](CC(=O)O)NC(=O)[C@H](CO)NC(=O)[C@@H](NC(=O)[C@](C)(Cc1ccccc1)NC(=O)[C@H](CO)NC(=O)CNC(=O)[C@H](CCC(=O)O)NC(=O)C(C)(C)NC(=O)[C@@H](N)Cc1c[nH]cn1)[C@@H](C)O)C(C)C)[C@@H](C)CC)C(=O)N[C@H](C(=O)N[C@H](C(=O)N[C@@H](CCC(=O)O)C(=O)NCC(=O)NCC(N)=O)C(C)C)C(C)C)C(=O)O", "note": "[MEDI7219] (H-H[Aib]EGS[αMeF]TSDV[αMeS]SK([AEEA-AEEA-γGlu-Lauroyl])LEGEAA[αMeK]E[αMeF]IAK([AEEA-AEEA-γGlu-Lauroyl])VVEGG-NH2)", "values": [{"measurement": "Proportion of total absorption (120 min) occurring in interval 0–20 min", "setting": "[1]; [3]", "result": "11% ± 2.8%"}, {"measurement": "Proportion of total absorption (120 min) occurring in interval 20–40 min", "setting": "[1]; [3]", "result": "12% ± 2.9%"}, {"measurement": "Proportion of total absorption (120 min) occurring in interval 40–60 min", "setting": "[1]; [3]", "result": "22% ± 2.5%"}, {"measurement": "Proportion of total absorption (120 min) occurring in interval 60–80 min", "setting": "[1]; [3]", "result": "15% ± 1.2%"}, {"measurement": "Proportion of total absorption (120 min) occurring in interval 80–100 min", "setting": "[1]; [3]", "result": "18% ± 2.5%"}, {"measurement": "Proportion of total absorption (120 min) occurring in interval 100–120 min", "setting": "[1]; [3]", "result": "22% ± 4.9%"}, {"measurement": "Proportion of total absorption (120 min) occurring in interval 0–20 min", "setting": "[1]; [4]", "result": "72% ± 3.6%"}, {"measurement": "Proportion of total absorption (120 min) occurring in interval 20–40 min", "setting": "[1]; [4]", "result": "16% ± 2.6%"}, {"measurement": "Proportion of total absorption (120 min) occurring in interval 40–60 min", "setting": "[1]; [4]", "result": "4.5% ± 1.7%"}, {"measurement": "Proportion of total absorption (120 min) occurring in interval 60–80 min", "setting": "[1]; [4]", "result": "1.8% ± 5.5%"}, {"measurement": "Proportion of total absorption (120 min) occurring in interval 80–100 min", "setting": "[1]; [4]", "result": "2.1% ± 2.6%"}, {"measurement": "Proportion of total absorption (120 min) occurring in interval 100–120 min", "setting": "[1]; [4]", "result": "3.6% ± 4.2%"}, {"measurement": "Proportion of total absorption (120 min) occurring in interval 0–20 min", "setting": "[1]; [5]", "result": "25% ± 5.1%"}, {"measurement": "Proportion of total absorption (120 min) occurring in interval 20–40 min", "setting": "[1]; [5]", "result": "20% ± 2.6%"}, {"measurement": "Proportion of total absorption (120 min) occurring in interval 40–60 min", "setting": "[1]; [5]", "result": "24% ± 2.3%"}, {"measurement": "Proportion of total absorption (120 min) occurring in interval 60–80 min", "setting": "[1]; [5]", "result": "13% ± 3.5%"}, {"measurement": "Proportion of total absorption (120 min) occurring in interval 80–100 min", "setting": "[1]; [5]", "result": "10% ± 3.1%"}, {"measurement": "Proportion of total absorption (120 min) occurring in interval 100–120 min", "setting": "[1]; [5]", "result": "7.8% ± 4.0%"}, {"measurement": "Cmax", "setting": "[1]; 50 mM C10, blank FaSSIF pH 6.5, dose FD10 10 mg, n = 5–6", "result": 440, "unit": "nM"}, {"measurement": "Cmax", "setting": "[1]; 300 mM C10, blank FaSSIF pH 6.5, dose FD10 10 mg, n = 5–6", "result": 1400, "unit": "nM"}, {"measurement": "Tmax", "setting": "[1]; 0 mM C10, blank FaSSIF pH 6.5, median (min–max), n = 5–6 (PEP12210 n = 2)", "result": 2, "unit": "h"}, {"measurement": "Tmax", "setting": "[1]; 50 mM C10, blank FaSSIF pH 6.5, median (min–max), n = 5–6", "result": 0.333, "unit": "h"}, {"measurement": "Tmax", "setting": "[1]; 300 mM C10, blank FaSSIF pH 6.5, median (min–max), n = 5–6", "result": 1.5, "unit": "h"}, {"measurement": "Half-life following oral administration", "setting": "[2]", "result": 9.8, "unit": "h"}, {"measurement": "Proportion of peptide remaining intact", "setting": "pancreatin", "result": 90, "unit": "%"}]}]}
